Among the data in US20120208809A1, “9H-PYRROLO[2,3-B: 5,4-C'] DIPYRIDINE AZACARBOLINE DERIVATIVES, PREPARATION THEREOF, AND THERAPEUTIC USE THEREOF” (SANOFI, priority 2009, published 2012) are EC50 and IC50 values, retold here.

Where only a bound is given, the exact number is not on record here.

One experiment relates to MV4-11. Description: Cell viability assay (CellTiter-Blue), MV4-11. The conditions noted are these: Homo sapiens, read-out: EC50 MV4-11 μM (acute myeloid leukemia), MV4-11 cells, read-out: EC50 MV4-11 μM (myeloma). The class given is cell-based. On the procedure:
(§1) The representative compounds of the invention are also screened as regards their effects on cell proliferation and viability, using a variety of tumoral cell lines of human source, representative of different pathological indications. These cell lines include:
(§2) In order to measure the viability, the tumour cells are incubated in 96-well or 384-well format for 48, 72 or 96 hours, preferably 72 hours, with a compound of the invention at dilutions of a factor 3, with, in general, nine doses in total, the highest dose being equal to 10 μM or 30 μM. The cell viability is evaluated by adding CellTiter-Blue® (Promega, Madison, Wis., United States) for 4 hours and endpoint readings are taken using a SpectraMax Genmini EM plate reader (Molecular Devices, Sunnyvale, Calif., United States). The CellTiter-Blue® cell viability assay measures the ability of the cells in culture to reduce resazurin to resorufin, the intensity of the fluorescence signal being directly proportional to the number of live cells. The EC50 represents the concentration of compound that leads to a 50% reduction of the viability/proliferative expansion of the cells.
On the technique in general: The colour change of resazurin is a common sign of viable cells or microbes.

The next experiment addresses T1, Pim-2 (Homo sapiens, UniProt Q9P1W9).
T1 construct: full-length human recombinant His6-labelled Pim-1, Pim-2 or Pim-3 protein; His6; made in house
Description: TR-FRET assay of Pim kinase activity (phosphorylation of Bad Ser112), Pim-2. The conditions noted are these: ATP 40 μM, read-out: IC50 Pim2. The class given is biochemical. Summed up:
(§3)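 Full-length His6-tagged human Pim-1, -2 or -3 phosphorylate full-length His6-Bad at 40 μM ATP; phospho-Ser112 detected by TR-FRET (Eu anti-phosphoBad, APC anti-His6), 665/615 nm ratio. Compounds run at 10 concentrations in duplicate, typically top 30 μM; IC50 from 4-parameter logistic fit.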

A further experiment deals with MOLM-13. Description: Cell viability assay (CellTiter-Blue), MOLM-13. The class given is cell-based. The conditions noted are these: Homo sapiens, read-out: EC50 MOLM-13 μM, MOLM-13 cells, read-out: EC50 MOLM-13 μM (myeloma). On the procedure:
as §1, §2

For another experiment, the system named is EOL-1. Description: Cell viability assay (CellTiter-Blue), EOL-1.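 Note: EOL-1 is an acute myeloid eosinophilic leukaemia line not a lymphoma.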 The class given is cell-based. The conditions noted are these: Homo sapiens, EOL1, read-out: EC50 EOL-1 μM (eosinophilic leukaemia), EOL-1 cells, read-out: EC50 EOL-1 μM (lymphoma).
Text: as §1
Models of Haematological Cancers: • TF-1 (acute myelogenic leukaemia; AML M6 at the time of diagnosis); • K G-1 (AML; erythroleukaemia evolving into AML); • KG-1a (AML; subclone derived from immature KG-1); • EOL-1 (AML: eosinophilic leukaemia); • PL-21 (AML; M3); • ML-2 (AML; T-NHL evolving into T-ALL evolving into AML M4); • HL-60 (AML, M3); • Kasumi-1 (AML); • GDM-1 (AML); • K-562 (CML—chronic myelogenic leukaemia; blastic crisis); • JURL-MK1 (CML; blastic crisis); • DND-41 (T-ALL—T-cell acute lymphoblastic leukaemia); • Jurkat (T-ALL); NALM-6 (B-ALL B-cell ALL); • CEM (ALL; lymphosarcoma evolving into ALL); • Jeko-1 (B-NHL—B-cell non-Hodgkin lymphoma; lymphoma with coat cells derived from a large-cell variant in leukaemic transformation); • WSU-DLCL2 (B-NHL; diffuse lymphoma with large B cells); • RL (B-NHL; undifferentiated diffuse); • OCl-Ly10 (B-NHL); • DoHH-2 (B-NHL); • RPMI-8226 (MM—multiple myelomas); • JVM-2 (B-CLL—B-cell chronic lymphocytic leukaemia); and • JVM-3 (B-CLL).
as §2

Another experiment has as its target PLK1 (Homo sapiens, UniProt P53350). The experiment in a line: Biochemical results, IC50 PLK1.
In a further experiment the target is CDK1 (Homo sapiens, UniProt P06493). Description: Biochemical results, IC50 CDK1.
Sequence of CDK1 (P06493 whole entry, species assumed): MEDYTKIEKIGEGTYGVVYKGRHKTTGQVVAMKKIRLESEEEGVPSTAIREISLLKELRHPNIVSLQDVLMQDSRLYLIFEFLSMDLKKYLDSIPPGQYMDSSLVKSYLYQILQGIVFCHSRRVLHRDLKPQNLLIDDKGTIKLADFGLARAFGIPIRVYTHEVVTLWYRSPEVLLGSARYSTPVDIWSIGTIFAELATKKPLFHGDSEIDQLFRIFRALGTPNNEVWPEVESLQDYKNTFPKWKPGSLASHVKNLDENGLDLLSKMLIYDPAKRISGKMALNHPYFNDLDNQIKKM
Sequence of CDK1 (P14635 whole entry partner, species assumed): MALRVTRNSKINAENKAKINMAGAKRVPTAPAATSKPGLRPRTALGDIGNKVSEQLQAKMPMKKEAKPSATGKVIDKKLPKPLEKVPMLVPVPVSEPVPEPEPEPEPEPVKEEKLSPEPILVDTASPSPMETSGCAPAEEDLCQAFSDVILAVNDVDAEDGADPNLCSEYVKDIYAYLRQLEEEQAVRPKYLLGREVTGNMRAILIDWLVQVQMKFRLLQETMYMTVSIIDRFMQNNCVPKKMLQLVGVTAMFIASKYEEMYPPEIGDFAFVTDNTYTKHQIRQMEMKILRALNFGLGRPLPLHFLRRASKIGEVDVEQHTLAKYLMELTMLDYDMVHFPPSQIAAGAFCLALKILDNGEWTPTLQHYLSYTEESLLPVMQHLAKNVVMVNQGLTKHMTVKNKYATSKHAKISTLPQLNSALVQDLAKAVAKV
Another experiment concerns the target T2, Pim-1 (Homo sapiens, UniProt P11309).
T2 construct: full-length human recombinant His6-labelled Pim-1, Pim-2 or Pim-3 protein; His6; made in house
The experiment in a line: TR-FRET assay of Pim kinase activity (phosphorylation of Bad Ser112), Pim-1. The class given is biochemical. To be noted: ATP 40 μM, read-out: IC50 Pim1. Summed up:
as §3
A general note: In TR-FRET formats the signal depends on donor and acceptor labels being close together.

For the next experiment, the target named is T3, Pim-3 (Homo sapiens, UniProt Q86V86).
T3 construct: full-length human recombinant His6-labelled Pim-1, Pim-2 or Pim-3 protein; His6; made in house
The experiment in a line: TR-FRET assay of Pim kinase activity (phosphorylation of Bad Ser112), Pim-3. The class given is biochemical. The conditions noted are these: ATP 40 μM, read-out: IC50 Pim3. Summed up:
as §3

For the next experiment, the system named is phosphoBAD (DND-41). Description: Level of phosphorylation of Bad by ELISA, DND-41 cell line. The class given is cell-based. To be noted: Homo sapiens, DND41, DND-41 cells, 3 hours at 37° C. On the procedure: The activity of the molecules is evaluated on the JEKO or DND-41 cell line by measuring the level of phosphorylation of Bad and the total Bad content, via the ELISA technique.
The JEKO or DND-41 cells are resuspended at a concentration of 500 000 cells per ml. The cells are then diluted in RPMI-1640 medium containing 20% foetal calf serum. 225 μl of cells are placed in a plate. Serial dilutions of the molecules are then performed (8 points, three-fold dilution, range started at 10 mM). Each dilution point is then diluted to 1/100 in medium. Next, 25 μl of each of the concentrations are added to the cells and then incubated for 3 hours at 37° C.
100 μl of the cells are transferred into a plate treated with poly-D-Lysine. The plate is then incubated for 5-10 minutes at 37° C. and then centrifuged for 5 minutes at 1500 rpm. A volume of 100 μl of 8% fixing solution (solution of formaldehyde in PBS buffer) is added to each of the wells. After covering with a self-adhesive film and a lid, the plate is incubated for 20 minutes at room temperature and then stored at 4° C. overnight.
Next, the liquid is removed and two successive washes are performed with washing buffer. 100 μl of quenching buffer are added, followed by incubating for 15 minutes at room temperature. After washing, 100 μl of […] at room temperature. After washing, 50 μl of primary antibody diluted to 1/250 for pBAD (Cell Signaling Cat#5284) and to 1/500 for Bad (MBL Cat#591) are added to each of the plates. Each plate is incubated for 2 hours at room temperature. After two washes, 50 μl of secondary antibody (diluted to 1/16) are added to the pBAD plate (tebu-bio ref; FE-021) and 50 μl of the HRP-conjugated IgG secondary antibody (Santa Cruz Cat #SC-2004; diluted to 1/1000) are added to the Bad plate. Incubation for 1 hour at room temperature is performed. Four washes with the washing solution are performed, followed by three washes with PBS. Finally, 100 μl of the developing solution are added, followed by incubation for 10 minutes. Finally, 100 μl of the quenching solution are added, before reading at 450 nm.
For orientation: An ELISA detects its analyte on a solid surface through an enzyme-linked reagent.

T2 sequence (P11309 whole entry): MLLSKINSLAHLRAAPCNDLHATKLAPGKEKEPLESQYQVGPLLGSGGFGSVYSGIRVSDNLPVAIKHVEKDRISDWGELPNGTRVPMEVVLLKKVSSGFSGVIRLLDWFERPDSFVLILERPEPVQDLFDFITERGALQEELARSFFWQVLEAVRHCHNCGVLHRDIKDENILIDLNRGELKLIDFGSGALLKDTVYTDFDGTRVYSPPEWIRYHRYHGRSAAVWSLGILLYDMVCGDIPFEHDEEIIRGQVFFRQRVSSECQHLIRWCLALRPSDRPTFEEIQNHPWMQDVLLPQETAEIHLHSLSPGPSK
T1 sequence (Q9P1W9 whole entry): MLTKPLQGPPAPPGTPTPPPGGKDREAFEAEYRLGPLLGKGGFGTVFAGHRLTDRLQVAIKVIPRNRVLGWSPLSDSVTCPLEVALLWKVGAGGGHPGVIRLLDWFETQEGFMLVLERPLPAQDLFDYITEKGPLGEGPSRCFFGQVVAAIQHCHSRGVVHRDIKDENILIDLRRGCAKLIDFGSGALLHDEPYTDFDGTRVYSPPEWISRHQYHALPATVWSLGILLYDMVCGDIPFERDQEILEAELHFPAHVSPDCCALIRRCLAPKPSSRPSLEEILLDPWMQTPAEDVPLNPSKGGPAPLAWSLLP
Sequence of PLK1 (P53350 whole entry, species assumed): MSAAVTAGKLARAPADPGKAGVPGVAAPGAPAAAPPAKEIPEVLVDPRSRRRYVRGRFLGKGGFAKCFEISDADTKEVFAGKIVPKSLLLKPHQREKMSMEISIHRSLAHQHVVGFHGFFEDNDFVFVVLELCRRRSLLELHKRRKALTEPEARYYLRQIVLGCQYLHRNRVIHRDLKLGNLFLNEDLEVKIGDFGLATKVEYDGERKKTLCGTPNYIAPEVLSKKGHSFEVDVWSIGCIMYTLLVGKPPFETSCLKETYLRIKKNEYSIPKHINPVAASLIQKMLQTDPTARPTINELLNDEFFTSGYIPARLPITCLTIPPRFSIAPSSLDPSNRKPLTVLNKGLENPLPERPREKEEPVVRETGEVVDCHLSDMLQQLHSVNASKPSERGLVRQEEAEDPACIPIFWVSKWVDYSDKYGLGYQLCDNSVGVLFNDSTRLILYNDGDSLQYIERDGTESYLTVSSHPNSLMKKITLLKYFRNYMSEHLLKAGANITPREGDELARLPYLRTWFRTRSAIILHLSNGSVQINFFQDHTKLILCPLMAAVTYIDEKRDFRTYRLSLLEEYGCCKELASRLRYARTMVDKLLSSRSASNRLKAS

One may read the EC50 as the concentration that produces a half-maximal response. The term IC50 denotes the concentration needed to halve the response being measured. In the case of `CN1CCN(NC(=O)c2ccc(-c3c(F)cnc4[nH]c5cnc(-c6cccnc6)cc5c34)cc2)CC1` [Example 7, 4-[3-fluoro-6-(pyridin-3-yl)-9H-pyrrolo[2,3-b:5,4-c′]dipyridin-4-yl]-N-(4-methylpiperazin-1-yl)benzamide], the 50% effective concentration (EC50) with MV4-11 is 0.1 to 1 µM; in the experiment on MOLM-13, 0.1 to 1 µM; in the experiment on EOL-1 it was less than 0.1 µM. Moreover, the IC50 at Pim-2 is 0.1 to 1 µM; at PLK1, 0.1 to 1 µM; against CDK1 it was 1 to 5 µM; on Pim-1, less than 0.1 µM; on Pim-3 it was less than 0.1 µM.

Take `CN(C)CCCNC(=O)c1ccc(-c2c(F)cnc3[nH]c4cnc(-c5cccnc5)cc4c23)cc1` [Example 10, N-[3-(dimethylamino)propyl]-4-[3-fluoro-6-(pyridin-3-yl)-9H-pyrrolo[2,3-b:5,4-c′]dipyridin-4-yl]benzamide]: the EC50 with MV4-11, in the experiment with MOLM-13 and in the experiment on EOL-1 was 0.1 to 1 µM in each case. Further, the IC50 was 0.1 to 1 µM at Pim-2; 1 to 5 µM against PLK1; 1 to 5 µM on CDK1; less than 0.1 µM at Pim-1; less than 0.1 µM at Pim-3.

Take `CN(C)CCNC(=O)c1cccc(-c2c(F)cnc3[nH]c4cnc(-c5cccnc5)cc4c23)c1` [Example 12, N-[2-(dimethylamino)ethyl]-3-[3-fluoro-6-(pyridin-3-yl)-9H-pyrrolo[2,3-b:5,4-c′]dipyridin-4-yl]benzamide]: the EC50 lay in the range of 1 to 5 µM in the experiment with MV4-11, 0.1 to 1 µM in the experiment with MOLM-13 and 0.1 to 1 µM in the experiment with EOL-1. Further, the IC50 at Pim-2 is 1 to 5 µM; at PLK1, 1 to 5 µM; against CDK1, 1 to 5 µM; on Pim-1, less than 0.1 µM; at Pim-3, less than 0.1 µM.

As to `O=C(NCCCN1CCOCC1)c1ccc(-c2c(F)cnc3[nH]c4cnc(-c5cccnc5)cc4c23)cc1` [Example 19, 4-[3-fluoro-6-(pyridin-3-yl)-9H-pyrrolo[2,3-b:5,4-c′]dipyridin-4-yl]-N-[3-(morpholin-4-yl)propyl]benzamide], the half-inhibitory concentration (IC50) on Pim-2 was 0.1 to 1 µM; on PLK1, 0.1 to 1 µM; on CDK1, 1 to 5 µM; at Pim-1, less than 0.1 µM; at Pim-3, less than 0.1 µM. Further, the EC50 in the experiment with MOLM-13 and in the experiment on EOL-1 was 0.1 to 1 µM each time.

Consider `O=C(NCCCN1CCCC1)c1ccc(-c2c(F)cnc3[nH]c4cnc(-c5cccnc5)cc4c23)cc1` [Example 20, 4-[3-fluoro-6-(pyridin-3-yl)-9H-pyrrolo[2,3-b:5,4-c′]dipyridin-4-yl]-N-[3-(pyrrolidin-1-yl)propyl]benzamide], for which the IC50 was 0.1 to 1 µM at Pim-2; 0.1 to 1 µM against PLK1; 0.1 to 1 µM on CDK1; less than 0.1 µM at Pim-1; less than 0.1 µM on Pim-3. Besides, the EC50 with MOLM-13 and with EOL-1 was 0.1 to 1 µM each time.

Turning to `O=C(NCCN1CCOCC1)c1ccc(-c2c(F)cnc3[nH]c4cnc(-c5cccnc5)cc4c23)cc1` [Example 21, 4-[3-fluoro-6-(pyridin-3-yl)-9H-pyrrolo[2,3-b:5,4-c′]dipyridin-4-yl]-N-[2-(morpholin-4-yl)ethyl]benzamide], the 50% effective concentration (EC50) in the experiment with MV4-11, in the experiment with MOLM-13 and in the experiment with EOL-1 was 0.1 to 1 µM throughout. Further, the IC50 on Pim-2 was 1 to 5 µM; at PLK1 it was 1 to 5 µM; against CDK1 it was 0.1 to 1 µM; at Pim-1, less than 0.1 µM; on Pim-3, less than 0.1 µM.

As for `CN(C)CCCNC(=O)c1ccc(-c2c(F)cnc3[nH]c4cnc(-c5cnn(C)c5)cc4c23)cc1` [Example 38], the 50% effective concentration (EC50) in the experiment with MV4-11 was 0.1 to 1 µM; in the experiment with MOLM-13, 0.1 to 1 µM; in the experiment with EOL-1 it was less than 0.1 µM. Further, the concentration for half-maximal inhibition (IC50) is less than 0.1 µM at Pim-2; 1 to 5 µM against PLK1; 0.1 to 1 µM against CDK1; less than 0.1 µM on Pim-1; less than 0.1 µM at Pim-3.

Turning to `CC(C)N(CCNC(=O)c1ccc(-c2c(F)cnc3[nH]c4cnc(-c5cccnc5)cc4c23)cc1)C(C)C` [Example 66, N-[2-(dipropan-2-ylamino)ethyl]-4-[3-fluoro-6-(pyridin-3-yl)-9H-pyrrolo[2,3-b:5,4-c′]dipyridin-4-yl]benzamide], the concentration giving a half-maximal response (EC50) is 0.1 to 1 µM with MV4-11 and less than 0.1 µM in the experiment with EOL-1. The IC50 is 0.1 to 1 µM on Pim-2; 0.1 to 1 µM against PLK1; 1 to 5 µM against CDK1; 0.1 to 1 µM in the experiment on phosphoBAD (DND-41); less than 0.1 µM on Pim-1; less than 0.1 µM on Pim-3.

`CC(CN(C)C)NC(=O)c1ccc(-c2c(F)cnc3[nH]c4cnc(-c5cccnc5)cc4c23)cc1` (stereo not drawn) [Example 68, N-[1-(dimethylamino)propan-2-yl]-4-[3-fluoro-6-(pyridin-3-yl)-9H-pyrrolo[2,3-b:5,4c′]dipyridin-4-yl]benzamide]: the results for the 50% effective concentration (EC50) in the experiment on MV4-11 and with EOL-1 were 0.1 to 1 µM and less than 0.1 µM, respectively. Also, the concentration for half-maximal inhibition (IC50) at Pim-2 is less than 0.1 µM; against PLK1, 1 to 5 µM; against CDK1, 1 to 5 µM; in the experiment on phosphoBAD (DND-41), less than 0.1 µM; at Pim-1 it was less than 0.1 µM; at Pim-3 it was less than 0.1 µM.

For the compound `CN(C)CCCCNC(=O)c1ccc(-c2c(F)cnc3[nH]c4cnc(-c5cccnc5)cc4c23)cc1` [Example 75, N-[4-(dimethylamino)butyl]-4-[3-fluoro-6-(pyridin-3-yl)-9H-pyrrolo[2,3-b:5,4-c′]dipyridin-4-yl]benzamide], the EC50 with MV4-11 and in the experiment on EOL-1 was 0.1 to 1 µM throughout. The half-inhibitory concentration (IC50) at Pim-2 was 0.1 to 1 µM; at PLK1, 1 to 5 µM; against CDK1, 0.1 to 1 µM; in the experiment on phosphoBAD (DND-41), 1 to 5 µM; at Pim-1, less than 0.1 µM; at Pim-3, less than 0.1 µM.
